The values below are quoted from earlier work in US20160045407A1, “DENTRIFICE WITH INCREMENTAL CHEMISTRIES” (The Procter & Gamble Company, priority 2014, published 2016).

The conditions of this data set: concentration level where the cooling effect can be clearly recognized.

As to `CC(C)[C@@H]1CC[C@@H](C)C[C@@H]1O` [1-neomenthol], the cooling threshold entry is reported as “about 3,000 ppb”.
For the molecule `CC(C)[C@@H]1CC[C@@H](C)C[C@H]1O` [L-menthol], the cooling threshold result is on record as “about 800 ppb”.
As to `CC(C)[C@@H]1CC[C@@H](C)C[C@@H]1O` [d-neomenthol], the cooling threshold entry is “about 25,000 ppb”.
